Results from ChEMBL document CHEMBL5226338, “Molecular hybrids: A five-year survey on structures of multiple targeted hybrids of protein kinase inhibitors for cancer therapy” (Eur J Med Chem, 2021).
Blank lines part the entries; values can stand above or below the compound they belong to.

Key:
[1] = Cytotoxicity against human U87 cells; type: functional, cell-based, U-87MG ATCC; settings: U-87 MG
[2] = biological target: T1, Epidermal growth factor receptor (Homo sapiens, UniProt P00533); assay: Inhibition of EGFR (unknown origin) phosphorylation by ELISA
T1 sequence (P00533 whole entry): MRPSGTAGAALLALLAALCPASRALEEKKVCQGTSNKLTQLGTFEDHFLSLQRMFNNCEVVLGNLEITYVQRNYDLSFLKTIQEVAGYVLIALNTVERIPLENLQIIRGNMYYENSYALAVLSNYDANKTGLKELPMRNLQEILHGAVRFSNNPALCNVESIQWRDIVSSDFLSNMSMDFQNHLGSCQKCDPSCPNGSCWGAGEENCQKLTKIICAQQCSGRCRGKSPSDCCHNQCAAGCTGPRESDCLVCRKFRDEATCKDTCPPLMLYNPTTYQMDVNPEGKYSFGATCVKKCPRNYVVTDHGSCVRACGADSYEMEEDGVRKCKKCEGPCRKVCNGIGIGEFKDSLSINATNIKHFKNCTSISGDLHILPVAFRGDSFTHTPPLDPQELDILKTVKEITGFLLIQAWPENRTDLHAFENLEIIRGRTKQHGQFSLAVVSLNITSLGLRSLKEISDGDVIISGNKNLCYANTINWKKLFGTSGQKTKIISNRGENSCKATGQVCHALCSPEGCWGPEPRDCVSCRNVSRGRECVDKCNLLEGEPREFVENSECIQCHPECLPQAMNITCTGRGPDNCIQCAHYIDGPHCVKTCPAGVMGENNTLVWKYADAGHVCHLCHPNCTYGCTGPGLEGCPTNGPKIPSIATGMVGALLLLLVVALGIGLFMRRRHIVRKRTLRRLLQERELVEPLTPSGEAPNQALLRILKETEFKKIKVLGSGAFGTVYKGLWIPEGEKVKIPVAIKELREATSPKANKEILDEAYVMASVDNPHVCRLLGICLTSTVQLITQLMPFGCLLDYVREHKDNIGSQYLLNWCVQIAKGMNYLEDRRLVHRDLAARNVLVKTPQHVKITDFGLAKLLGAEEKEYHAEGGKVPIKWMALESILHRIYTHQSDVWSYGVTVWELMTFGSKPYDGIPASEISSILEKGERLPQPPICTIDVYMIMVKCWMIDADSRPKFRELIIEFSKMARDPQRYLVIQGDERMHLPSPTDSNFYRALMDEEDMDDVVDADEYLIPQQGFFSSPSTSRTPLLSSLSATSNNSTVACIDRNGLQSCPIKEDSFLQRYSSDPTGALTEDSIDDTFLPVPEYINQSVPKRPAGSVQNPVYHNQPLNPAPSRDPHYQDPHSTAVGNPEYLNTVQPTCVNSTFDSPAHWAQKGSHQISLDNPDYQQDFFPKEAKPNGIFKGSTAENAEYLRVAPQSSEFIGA

Tubulin beta = assay: Inhibition of beta-tubulin polymerization (unknown origin) measured every 3 secs for 1 hr by spectrofluorometer; type: protein assay, Homo sapiens
[3] = biological target: T1, Epidermal growth factor receptor; assay: Inhibition of EGFR (unknown origin)
A549 = assay: Antiproliferative activity against human A549 cells assessed as inhibition of cell growth incubated for 48 hrs by MTT assay; type: functional, cell-based; settings: A549, 48 h
[4] = biological target: T1, Epidermal growth factor receptor; assay: Inhibition of EGFR (unknown origin) phosphorylation using kit-tyr4 peptide as substrate incubated for 1 hr in presence of ATP by UV-Vis spectrophotometer
[5] = biological target: Tyrosine-protein kinase JAK2 (Homo sapiens, UniProt O60674); assay: Inhibition of JAK2 (unknown origin)
Tyrosine-protein kinase JAK2, sequence (O60674 whole entry): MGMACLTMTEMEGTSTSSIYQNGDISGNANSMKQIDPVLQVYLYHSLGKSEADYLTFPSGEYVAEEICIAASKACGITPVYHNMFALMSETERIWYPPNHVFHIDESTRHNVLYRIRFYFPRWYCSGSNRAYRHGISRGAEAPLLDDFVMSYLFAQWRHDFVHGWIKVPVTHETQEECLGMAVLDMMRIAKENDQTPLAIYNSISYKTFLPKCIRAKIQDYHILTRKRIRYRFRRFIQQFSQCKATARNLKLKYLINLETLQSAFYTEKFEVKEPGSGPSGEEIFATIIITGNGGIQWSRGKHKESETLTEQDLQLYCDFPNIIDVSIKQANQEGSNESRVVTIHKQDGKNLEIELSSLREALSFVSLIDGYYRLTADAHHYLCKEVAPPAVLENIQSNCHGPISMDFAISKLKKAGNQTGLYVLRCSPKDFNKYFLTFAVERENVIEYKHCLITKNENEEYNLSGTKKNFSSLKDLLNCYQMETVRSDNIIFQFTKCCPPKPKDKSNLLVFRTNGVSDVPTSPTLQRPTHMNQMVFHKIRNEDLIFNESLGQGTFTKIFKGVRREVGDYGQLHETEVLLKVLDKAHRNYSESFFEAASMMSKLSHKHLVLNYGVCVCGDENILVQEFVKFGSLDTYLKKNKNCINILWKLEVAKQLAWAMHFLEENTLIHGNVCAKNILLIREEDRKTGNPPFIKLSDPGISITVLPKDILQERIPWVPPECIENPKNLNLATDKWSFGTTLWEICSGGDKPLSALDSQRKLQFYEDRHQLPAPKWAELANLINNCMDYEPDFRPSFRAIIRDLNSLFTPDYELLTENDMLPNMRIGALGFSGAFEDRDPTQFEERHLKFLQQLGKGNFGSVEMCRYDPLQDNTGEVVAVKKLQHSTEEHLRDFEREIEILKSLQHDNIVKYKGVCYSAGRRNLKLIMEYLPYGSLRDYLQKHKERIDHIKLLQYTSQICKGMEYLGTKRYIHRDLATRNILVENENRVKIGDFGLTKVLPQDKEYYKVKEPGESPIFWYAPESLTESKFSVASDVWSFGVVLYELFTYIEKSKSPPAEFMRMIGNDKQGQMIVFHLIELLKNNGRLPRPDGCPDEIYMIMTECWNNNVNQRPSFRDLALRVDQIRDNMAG

[6] = biological target: T2, Protein deacetylase HDAC6 (Homo sapiens, UniProt Q9UBN7); assay: Inhibition of HDAC6 (unknown origin)
T2 sequence (Q9UBN7 whole entry): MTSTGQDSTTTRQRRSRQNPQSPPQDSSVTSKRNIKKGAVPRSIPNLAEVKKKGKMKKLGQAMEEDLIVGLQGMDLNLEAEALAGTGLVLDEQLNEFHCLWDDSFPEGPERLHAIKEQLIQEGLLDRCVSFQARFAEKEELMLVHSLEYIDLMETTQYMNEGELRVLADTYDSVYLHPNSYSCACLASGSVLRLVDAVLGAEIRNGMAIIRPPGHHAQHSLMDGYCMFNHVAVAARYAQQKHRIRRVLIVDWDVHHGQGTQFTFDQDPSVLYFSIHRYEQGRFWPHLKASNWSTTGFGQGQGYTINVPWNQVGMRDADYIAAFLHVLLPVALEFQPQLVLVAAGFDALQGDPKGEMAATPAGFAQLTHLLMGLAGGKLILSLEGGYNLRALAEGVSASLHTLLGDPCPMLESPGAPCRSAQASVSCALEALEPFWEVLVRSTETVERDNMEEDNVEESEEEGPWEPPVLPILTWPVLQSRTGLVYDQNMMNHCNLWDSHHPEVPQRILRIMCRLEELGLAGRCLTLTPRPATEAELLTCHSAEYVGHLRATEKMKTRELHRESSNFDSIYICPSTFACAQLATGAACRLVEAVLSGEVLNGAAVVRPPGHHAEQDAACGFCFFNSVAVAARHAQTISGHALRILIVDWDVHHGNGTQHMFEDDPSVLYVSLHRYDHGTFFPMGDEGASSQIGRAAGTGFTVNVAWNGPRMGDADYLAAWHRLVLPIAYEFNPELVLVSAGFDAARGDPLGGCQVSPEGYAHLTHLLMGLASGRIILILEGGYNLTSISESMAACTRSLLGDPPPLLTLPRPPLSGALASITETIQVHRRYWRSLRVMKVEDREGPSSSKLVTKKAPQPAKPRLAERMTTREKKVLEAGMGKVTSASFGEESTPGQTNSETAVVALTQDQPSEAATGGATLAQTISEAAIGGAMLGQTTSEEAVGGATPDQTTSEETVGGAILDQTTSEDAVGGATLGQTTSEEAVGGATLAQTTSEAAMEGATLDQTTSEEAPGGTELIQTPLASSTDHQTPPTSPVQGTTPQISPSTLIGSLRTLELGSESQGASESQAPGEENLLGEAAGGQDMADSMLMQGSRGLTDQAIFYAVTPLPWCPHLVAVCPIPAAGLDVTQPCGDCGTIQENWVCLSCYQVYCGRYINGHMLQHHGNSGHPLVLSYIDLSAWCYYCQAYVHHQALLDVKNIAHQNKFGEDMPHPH

Histone deacetylase 1 = Histone deacetylase 1 (Homo sapiens, UniProt Q13547); assay: Inhibition of HDAC1 (unknown origin)
Histone deacetylase 1, sequence (Q13547 whole entry): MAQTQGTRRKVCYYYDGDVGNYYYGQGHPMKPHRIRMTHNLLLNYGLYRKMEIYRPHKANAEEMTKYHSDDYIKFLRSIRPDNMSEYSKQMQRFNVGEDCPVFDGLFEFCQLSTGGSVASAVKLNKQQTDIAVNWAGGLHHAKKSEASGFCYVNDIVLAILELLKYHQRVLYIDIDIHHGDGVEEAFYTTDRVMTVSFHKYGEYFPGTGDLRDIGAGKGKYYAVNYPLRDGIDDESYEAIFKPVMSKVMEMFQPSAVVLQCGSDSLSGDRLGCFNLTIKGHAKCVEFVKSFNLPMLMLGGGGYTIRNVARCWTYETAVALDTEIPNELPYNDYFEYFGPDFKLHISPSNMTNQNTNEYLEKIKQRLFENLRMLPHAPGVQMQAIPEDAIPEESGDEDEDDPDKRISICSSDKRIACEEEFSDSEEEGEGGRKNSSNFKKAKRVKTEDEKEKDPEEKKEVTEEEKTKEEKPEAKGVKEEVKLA

HepG2 = assay: Cytotoxicity against human HepG2 cells assessed as inhibition of cell growth incubated for 24 hrs by MTT assay; type: functional, cell-based; settings: HepG2, 24 h
[7] = biological target: T1, Epidermal growth factor receptor; assay: Inhibition of GST-fused EGFR (unknown origin) in presence of ATP by microplate reader analysis
Tubulin = assay: Inhibition of tubulin (unknown origin) polymerization; type: protein-complex assay, Homo sapiens
A-431 = assay: Cytotoxicity against human A-431 cells; type: functional, cell-based
NCI-H1975 = assay: Cytotoxicity against human NCI-H1975 cells; type: functional, cell-based
CAPAN-1 = assay: Antiproliferative activity against human CAPAN-1 cells assessed as inhibition of cell growth incubated for 24 to 72 hrs by MTT assay; type: functional, cell-based
BGC-823 = assay: Antiproliferative activity against human BGC-823 cells assessed as inhibition of cell growth incubated for 24 to 72 hrs by MTT assay; type: functional, cell-based
DU-145 = assay: Antiproliferative activity against human DU-145 cells assessed as inhibition of cell growth incubated for 24 to 72 hrs by MTT assay; type: functional, cell-based
[8] = Inhibition of tyrosine kinase in human PANC-1 cells; type: cell-based
PANC-1 = assay: Antiproliferative activity against human PANC-1 cells assessed as inhibition of cell growth incubated for 24 to 72 hrs by MTT assay; type: functional, cell-based
HGC-27 = assay: Antiproliferative activity against human HGC-27 cells assessed as inhibition of cell growth incubated for 24 to 72 hrs by MTT assay; type: functional, cell-based
[9] = Inhibition of tyrosine kinase in human CAPAN-1 cells; type: cell-based
[10] = biological target: DNA topoisomerase 2-alpha (Homo sapiens, UniProt P11388); assay: Inhibition of human topoisomerase 2 alpha assessed as relaxation of supercoiled plasmid pBR322 DNA incubated for 30 mins by ethidium bromide staining based agarose gel electrophoresis
DNA topoisomerase 2-alpha, sequence (P11388 whole entry): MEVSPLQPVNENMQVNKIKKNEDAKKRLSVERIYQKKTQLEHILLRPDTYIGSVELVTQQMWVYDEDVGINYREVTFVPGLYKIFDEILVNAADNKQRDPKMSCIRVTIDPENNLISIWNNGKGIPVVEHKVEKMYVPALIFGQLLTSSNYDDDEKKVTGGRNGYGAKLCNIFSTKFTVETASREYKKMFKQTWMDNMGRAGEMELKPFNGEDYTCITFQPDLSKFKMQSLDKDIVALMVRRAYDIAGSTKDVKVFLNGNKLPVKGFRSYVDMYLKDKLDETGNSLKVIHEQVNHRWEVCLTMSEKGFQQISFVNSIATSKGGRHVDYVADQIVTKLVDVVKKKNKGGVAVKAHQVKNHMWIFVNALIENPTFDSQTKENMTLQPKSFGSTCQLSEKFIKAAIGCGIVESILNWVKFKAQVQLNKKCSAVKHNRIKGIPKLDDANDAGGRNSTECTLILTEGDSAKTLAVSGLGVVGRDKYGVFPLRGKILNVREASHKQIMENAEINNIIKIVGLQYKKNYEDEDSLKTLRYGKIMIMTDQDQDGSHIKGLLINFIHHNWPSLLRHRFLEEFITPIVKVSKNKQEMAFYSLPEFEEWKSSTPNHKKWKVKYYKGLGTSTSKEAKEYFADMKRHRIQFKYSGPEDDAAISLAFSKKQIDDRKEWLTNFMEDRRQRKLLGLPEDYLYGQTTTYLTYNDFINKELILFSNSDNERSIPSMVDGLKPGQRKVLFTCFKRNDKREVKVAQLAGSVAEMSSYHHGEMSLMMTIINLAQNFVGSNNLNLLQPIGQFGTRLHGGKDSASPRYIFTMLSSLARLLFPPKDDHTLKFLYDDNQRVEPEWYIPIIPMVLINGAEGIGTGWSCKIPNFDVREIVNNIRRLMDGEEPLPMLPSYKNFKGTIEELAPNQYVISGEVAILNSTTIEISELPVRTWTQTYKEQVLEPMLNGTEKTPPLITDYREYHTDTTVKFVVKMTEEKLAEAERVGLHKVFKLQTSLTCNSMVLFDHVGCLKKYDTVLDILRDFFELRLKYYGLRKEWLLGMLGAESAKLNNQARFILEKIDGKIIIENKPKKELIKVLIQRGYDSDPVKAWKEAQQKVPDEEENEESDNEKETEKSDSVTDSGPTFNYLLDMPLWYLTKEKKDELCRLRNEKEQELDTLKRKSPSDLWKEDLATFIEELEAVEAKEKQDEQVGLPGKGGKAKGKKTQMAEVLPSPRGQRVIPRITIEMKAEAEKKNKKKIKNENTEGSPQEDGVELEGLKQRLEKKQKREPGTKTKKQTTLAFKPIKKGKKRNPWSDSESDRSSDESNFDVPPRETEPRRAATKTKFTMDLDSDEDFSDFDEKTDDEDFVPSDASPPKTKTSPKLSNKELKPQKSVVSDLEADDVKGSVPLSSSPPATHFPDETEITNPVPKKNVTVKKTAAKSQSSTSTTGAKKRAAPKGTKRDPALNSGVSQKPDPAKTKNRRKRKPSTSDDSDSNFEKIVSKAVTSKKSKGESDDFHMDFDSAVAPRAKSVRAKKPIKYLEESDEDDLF

T-24 = assay: Antiproliferative activity against human T24 cells assessed as inhibition of cell growth incubated for 24 to 72 hrs by MTT assay; type: functional, cell-based
Janus Kinase (JAK) = Janus Kinase (JAK) (Homo sapiens, UniProt P52333+P23458+O60674+P29597); assay: Inhibition of JAK (unknown origin); type: protein assay
[11] = biological target: Vascular endothelial growth factor receptor 2 (Homo sapiens, UniProt P35968); assay: Inhibition of VEGFR2 (unknown origin) by ELISA
[12] = biological target: T1, Epidermal growth factor receptor; assay: Inhibition of EGFR (unknown origin) by ELISA
DNA topoisomerase 2-beta = DNA topoisomerase 2-beta (Homo sapiens, UniProt Q02880); assay: Inhibition of human DNA topoisomerase 2-beta

- IC50 [2]: 90 nM
- IC50 (Tubulin beta): 5.51 µM
Compound: O=C(/C=C/c1ccc(F)cc1)c1cc(Br)cc2cc(-c3ccccc3)oc12

- IC50 (A549): 6.5 µM
- IC50 [4]: 220 nM
Compound: COc1ccc(CNc2nc3ccccc3c(NCc3ccc(OC)cc3)c2[N+](=O)[O-])cc1

- IC50 [5]: 8 nM
- IC50 [6]: 46 nM
Compound: CS(=O)(=O)Nc1ccc(-c2ccnc(Nc3ccc(N4CCC(CCc5ccc(/C=C/CC(=O)NO)cc5)CC4)cc3)n2)cc1

- IC50 [3]: 45 nM
Compound: Cc1cc(NC2=NC(=O)/C(=C/c3c4ccccc4cc4ccccc34)S2)no1

- IC50 [6]: 4.3 nM
- IC50 [3]: 10.3 nM
- IC50 (Histone deacetylase 1): 1.1 nM
Compound: O=C(CCCCCn1cc(-c2ccc3ncnc(Nc4ccc(Br)cc4F)c3c2)nn1)NO
- IC50 (A-431): 260 nM
- IC50 (NCI-H1975): 910 nM

- IC50 [11]: 126 nM
- IC50 [12]: 38.8 nM
- IC50 (DNA topoisomerase 2-beta): 25.8 nM
Compound: Cc1ccc2c(=O)n(Cc3ccccc3)c(SCc3cn(-c4ccc(C(=O)O)cc4)nn3)nc2c1

Second part, the compound before the results:

Compound: C=C[C@]1(C)CC[C@@H](C(=C)COC(=O)CCC(=O)CCCOc2no[n+]([O-])c2S(=O)(=O)c2ccccc2)C[C@H]1C(=C)C
- IC50 [1]: 2 nM

Compound: CC(=O)O[C@H]1CC[C@]2(C)[C@H]3CC=C4[C@@H]5CC(C)(C)CC[C@]5(C(=O)OCCCC[N+](=O)[O-])CC[C@@]4(C)[C@]3(C)CC[C@H]2C1(C)CO (stereo not given in full)
- IC50 [3]: 10 nM

Compound: CC(=O)Nc1ccc(-c2ccnc(NCc3ccc(OCCCCCC(=O)NO)cc3)n2)cc1
- IC50 [5]: 2.6 nM
- IC50 [6]: 20 nM
- IC50 (Histone deacetylase 1): 306 nM

Compound: CSc1nn(-c2ccc(Br)cc2)c2nc(C)nc(Nc3ccc(OCCCC[N+](=O)[O-])cc3)c12
- IC50 [3]: 3000 nM

Compound: CCCOCCSc1nc(-c2ccccc2Cl)nn1CCOCCC
- IC50 (HepG2): 1300 nM
- IC50 [7]: 867 nM
- IC50 (Tubulin): 107 nM

Compound: CN1CCN(c2cc3c(cc2F)C(=O)C(/C=C2\CN(C4CC4)c4cc(N5CCNCC5)c(F)cc4C2=O)CN3C2CC2)CC1 (stereo not given)
- IC50 (CAPAN-1): 312 nM
- IC50 (BGC-823): 312 nM
- IC50 (DU-145): 312 nM
- IC50 [8]: 3.1 µM
- IC50 (PANC-1): 312 nM
- IC50 (HGC-27): 312 nM
- IC50 [9]: 640 nM
- IC50 [10]: 1600 nM
- IC50 (T-24): 312 nM

Compound: O=C(CCCCCCn1cc(Nc2ncc(Cl)c(Nc3ccc(Cl)cc3)n2)cn1)NO
- IC50 (Janus Kinase (JAK)): 4 nM

Compound: C=C[C@]1(C)CC[C@@H](C(=C)COC(=O)CNC(=O)CCC(=O)OCCCCOc2no[n+]([O-])c2S(=O)(=O)c2ccccc2)C[C@H]1C(=C)C
- IC50 [1]: 2 nM
